Reference: paper PMC10095864, “Targeting HIV-1 Reverse Transcriptase Using a Fragment-Based Approach” (Molecules, 2023)
Where two headings read alike, the source gives them in different places.

Legend:
recombinant WT HIV-1 RT = target: T1, recombinant WT HIV-1 RT (Human immunodeficiency virus type 1 group M subtype B, UniProt P03367); experiment: biochemical; conditions: for IC50: RT Inhibition—IC50 ± SEM, WT RT DDDP activity; for Ligand efficiency (LE): binding to WT RT, LE = −1.4(logIC50)/N
T1 construct: The p66/p51 HIV-1 RT heterodimer engineered with a N-terminal histidine tag; His tag (histidine tag) (N); made in house; host or cells: Escherichia coli strain M15 (vector pRT6H-PR)
Experimental: (§1) The inhibitory activity of all compounds was evaluated in vitro in assays that measure the DNA-dependent DNA polymerase (DDDP) activity of HIV-1 RT. Compounds were tested against recombinant WT and drug-resistant HIV-1 RT mutants (K103N, Y181C or K103N/Y181C). […] The IC50 value of nevirapine was determined in parallel to control for the performance of the assay. […] These RT mutations either reduce the rate of entry of NNRTIs to the binding pocket (K103N) or remove aromatic interactions that favor binding (Y181C). Initially, compound IC50 values were determined in an assay that quantifies DDDP activity mediated by HIV-1 RT using a radiolabeled ^33PdTTP substrate and more recently using a nonradioactive PicoGreen-based spectrophotometric assay.
(§2) Recombinant HIV-1 RT: The p66/p51 HIV-1 RT heterodimer engineered with a N-terminal histidine tag was expressed from the pRT6H-PR vector (provided by Nicolas Sluis-Cremer) which is based on pRT6H-PROT [37], except that the RT coding region is derived from the infectious molecular clone xxLAI [38]. This xxLAI clone contains the HIV-1LAI backbone and is engineered with silent mutations introducing Xma I and Xba I sites in the RT coding region at nucleotide positions 40–45 and 1470 to 1475, respectively. pRT6H-PR expressing the NNRTI drug-resistant mutations K103N, Y181C and K103N/Y181C were generated by subcloning Xma I/Xba I fragments in xxLAI harboring the desired NNRTI mutations (Giacobbi NS and Sluis-Cremer 2017 AAC) into the corresponding restriction sites in the RT coding region of p6HRT-PR. RT was expressed in Escherichia coli strain M15 and purified using Ni-NTA chromatography as previously described. RT concentrations were determined spectrophotometrically at 280 nm using an extinction coefficient (e280) of 260, 450 M^−1 cm^−1.
(§3) Nevirapine was included in assays as a positive control for inhibiting RT polymerase activity. The DDDP assay was performed by first adding 25 ng of HIV-1 RT to test compound in 96-well plates followed by initiating RT polymerase activity by adding 200 ng of activated calf thymus (ACT) DNA (Sigma Aldrich), 0.2 µCi ^33P-α-dTTP (Perkin Elmer), 50 mM Tris-HCl pH 7.8 50 mM KCl, […], 50 µM dNTP mix (Bioline), 0.1 mg/mL bovine serum albumin (New England Biolabs), 0.01% IGEPAL (Sigma) and 1 mM dithiothreitol. Reactions contained 2.5% dimethyl sulfoxide (DMSO). Following incubation at 37 °C for 10 min, samples from duplicate wells were applied to Whatman DE81 ion-exchange paper (GE Healthcare); dried membranes were washed in 2X saline-sodium citrate (SSC) buffer; and incorporated counts were quantified using an FLP-2000 phosphorimager (Fujifilm) or Typhoon Trio Phosphorimager (GE Healthcare) as published. Dose–response curves were generated using PRISM GraphPad version 8 by plotting the log transformed drug concentrations against percentage inhibition of DDDP activity compared to the no drug control using non-linear regression analysis.
(§4) Non-radioactive DDDP Assay: DDDP assays were also performed using a PicoGreen based spectrophotometric assay to detect double-stranded DNA synthesized by recombinant HIV-1 RT [15]. Assays were performed as described for the […] DDDP assay except that instead of ACT, the reaction contained 40 nM of a template/primer comprising a 200 nt DNA template (5′-[…] […]-3′) annealed to a 18 nucleotide DNA primer (5′-[…]-3′), 50 mM Tris-HCl pH 7.8, 50 mM KCl, 10 mM MgCl2 and 50 µM dNTP mix.

HIV-1 RT Y181C mutant = target: T2, HIV-1 RT Y181C mutant (Human immunodeficiency virus type 1 group M subtype B, UniProt P03367, Y780C); experiment: DDDP activity assay, Y181C RT mutant; type: biochemical; conditions: PicoGreen or 33P radiolabeled assay, n ≥ 2, read-out: RT Inhibition—IC50 ± SEM, Y181C
T2 construct: The p66/p51 HIV-1 RT heterodimer engineered with a N-terminal histidine tag; His tag (histidine tag) (N); made in house; host or cells: Escherichia coli strain M15 (vector pRT6H-PR)
Experimental: as §1
Recombinant HIV-1 RT: The p66/p51 HIV-1 RT heterodimer engineered with a N-terminal histidine tag was expressed from the pRT6H-PR vector (provided by Nicolas Sluis-Cremer) which is based on pRT6H-PROT [37], except that the RT coding region is derived from the infectious molecular clone xxLAI [38]. […] RT concentrations were determined spectrophotometrically at 280 nm using an extinction coefficient (e280) of 260, 450 M^−1 cm^−1.
Nevirapine was included in assays as a positive control for inhibiting RT polymerase activity. […] Following incubation at 37 °C for 10 min, samples from duplicate wells were applied to Whatman DE81 ion-exchange paper (GE Healthcare); dried membranes were washed in 2X saline-sodium citrate (SSC) buffer; and incorporated counts were quantified using an FLP-2000 phosphorimager (Fujifilm) or Typhoon Trio Phosphorimager (GE Healthcare) as published. […]

His-tagged HIV-1 RT WT = target: T3, His-tagged HIV-1 RT WT (Human immunodeficiency virus type 1 group M subtype B, UniProt P03367); experiment: Surface plasmon resonance, WT RT; type: binding
T3 construct: The p66/p51 HIV-1 RT heterodimer engineered with a N-terminal histidine tag; His tag (histidine tag) (N); made in house; host or cells: Escherichia coli strain M15 (vector pRT6H-PR)
Experimental: (§5) Compound binding to recombinant HIV-1 RT was measured by surface plasmon resonance (SPR). SPR is an optical biosensor detection method that involves passing an analyte (often a fragment) in a buffer solution over a gold surface chip with an immobilized protein (RT enzyme) and detecting the change in plasmon resonance angle which is dependent on the refractive index of the medium near the surface. As compounds bind to the target protein, the refractive index changes proportionally to the extent of binding. This can then be used to measure the association and dissociation kinetics of binding as well as the compound’s affinity for binding.
(§6) SPR assays were performed on a Biacore S200 (GE Healthcare). His-tagged RT (WT, K103N, Y181C or K103N/Y181C) was immobilized on the surface of a Biacore compatible NIHC 1500M (Xantec) chip according to manufacturer’s instructions. Following 3 injections 300 s each of 0.5 M EDTA, the chip surface was activated with a 120 s injection of 5 mM NiCl2 followed by a 2100 s injection of 130 nM RT. The final immobilization level of RT was typically 14,000–27,000 RU. SPR experiments were carried out at 25 °C using a flow rate of 50 µL/min in running buffer. The running buffer was 1.053 × (HBS pH 7.4 + 50 µM EDTA + 0.005% Tween-20). Compounds were provided as 200 mM stocks and diluted in running buffer to obtain the concentrations required for dose-response studies (0, 6.25, 12.5, 25, 50, 100 and 200 µM). Raw sensorgram data were analyzed using Biacore S200 Evaluation Software. Dose-response determinations were evaluated using a 1:1 binding model. KD values were determined by Biacore S200 Evaluation Software Version 1.0. assuming 1:1 binding. For compounds approaching saturation, Rmax was floated. For compounds with insufficient curvature, Rmax was fixed based on a control. Errors were determined as the standard error in the dose-response fit, as calculated by Biacore S200 Evaluation Software.

[1] = target: T4, His-tagged HIV-1 RT K103N (Human immunodeficiency virus type 1 group M subtype B, UniProt P03367, K702N); experiment: Surface plasmon resonance, K103N RT; conditions: ± standard error of dose–response fit, n = 1; NB = no binding observed; read-out: SPR—KD, K103N
T4 construct: The p66/p51 HIV-1 RT heterodimer engineered with a N-terminal histidine tag; His tag (histidine tag) (N); made in house; host or cells: Escherichia coli strain M15 (vector pRT6H-PR)
Experimental: as §5, §6

[2] = target: T5, HIV-1 RT K103N/Y181C mutant (Human immunodeficiency virus type 1 group M subtype B, UniProt P03367, K702N/Y780C); experiment: DDDP activity assay, K103N/Y181C RT mutant; type: biochemical
T5 construct: The p66/p51 HIV-1 RT heterodimer engineered with a N-terminal histidine tag; His tag (histidine tag) (N); made in house; host or cells: Escherichia coli strain M15 (vector pRT6H-PR)
Experimental: as §1, §2, §3, §4

[3] = WT (PicoGreen assay), nonradioactive PicoGreen assay
[4] = WT, PicoGreen or 33P radiolabeled assay, value not marked as PicoGreen, n ≥ 2
[5] = read-out: SPR—KD, WT, ± standard error of dose–response fit, n = 1, NB = no binding observed

Question: Which IC50 (recombinant WT HIV-1 RT; [3]) does the source give for `Cc1ccnc2c1NC(=O)c1cccnc1N2C1CC1` [Nevirapine, nevirapine, reference compound] here?
Answer: 0.44 ± 0.03 µM

Question: `CCOC(=O)c1cnn2cc(Br)ccc12` [compound 7, Ethyl 6-Bromopyrazolo[1,5-a]pyridine-3-carboxylate] was tested. Which IC50 (recombinant WT HIV-1 RT; [4]) did it give?
Answer: > 1000 µM

Question: What does the source list for `CCOC(=O)c1cnn2cccc(C)c12` [compound 2, Ethyl 4-Methylpyrazolo[1,5-a]pyridine-3-carboxylate]?
Answer: IC50 (recombinant WT HIV-1 RT; [4]): 433 ± 166 µM; Ligand efficiency (LE) (recombinant WT HIV-1 RT): 0.31 kcal/mol/HA; IC50 (HIV-1 RT Y181C mutant): > 333 µM; Kd (His-tagged HIV-1 RT WT): 347 ± 23 µM

Question: How did the IC50 (recombinant WT HIV-1 RT; [4]) turn out when `CCOC(=O)c1cnn2cc(C)ccc12` [compound 4, Ethyl 6-Methylpyrazolo[1,5-a]pyridine-3-carboxylate] was run?
Answer: > 1000 µM

Question: For `CCCOC(=O)c1cnn2cccc(Br)c12` [compound 19, Propyl 4-bromopyrazolo[1,5-a]pyridine-3-carboxylate], which IC50 (recombinant WT HIV-1 RT; [3]) is on record?
Answer: > 1000 µM

Question: For `CCOC(=O)c1cnn2cccc(C#CCN(C)C)c12` [compound 24, Ethyl 4-(3-(Dimethylamino)prop-1-yn-1-yl)pyrazolo[1,5-a]pyridine-3-carboxylate], which IC50 (recombinant WT HIV-1 RT; [4]) is on record?
Answer: > 1000 µM

Question: What does the source list for `CCOC(=O)c1cnn2c(C)cc(Cl)cc12` [compound 14, Ethyl 5-Chloro-7-methylpyrazolo[1,5-a]pyridine-3-carboxylate]?
Answer: IC50 (recombinant WT HIV-1 RT; [4]): > 1000 µM; Kd (His-tagged HIV-1 RT WT; [5]): > 200 µM

Question: Which “fold improvement on parent compound B-1” value (recombinant WT HIV-1 RT; IC50 vs B-1 IC50 >1000 μM in the radioactive RT assay) does the source give for `CCOC(=O)c1cnn2cccc(C#CCCCCCO)c12` [compound 26, Ethyl 4-(7-Hydroxyhept-1-yn-1-yl)pyrazolo[1,5-a]pyridine-3-carboxylate] here?
Answer: > 20 fold

Question: What about the IC50 (recombinant WT HIV-1 RT; [4]) of the same compound?
Answer: 24 ± 6 µM

Question: And the “Ligand efficiency (LE)” value (recombinant WT HIV-1 RT)?
Answer: 0.30 kcal/mol/HA

Question: And the Kd [1]?
Answer: 233 ± 22 µM

Question: What about the Kd (His-tagged HIV-1 RT WT) of the same compound?
Answer: 173 ± 9 µM

Question: What about the IC50 [2] of the same compound?
Answer: 35 ± 7 µM

Question: Which IC50 (recombinant WT HIV-1 RT; [3]) does the source give for `CCOC(=O)c1cnn2c(C)ccc(Br)c12` [compound 9, Ethyl 4-Bromo-7-methylpyrazolo[1,5-a]pyridine-3-carboxylate] here?
Answer: 155 ± 19 µM

Question: And the “Ligand efficiency (LE)” value (recombinant WT HIV-1 RT)?
Answer: 0.33 kcal/mol/HA

Question: And the Kd (His-tagged HIV-1 RT WT; [5])?
Answer: > 200 µM

Question: For `CCOC(=O)c1cnn2c(C)ccc(F)c12` [compound 11, Ethyl 4-Fluoro-7-methylpyrazolo[1,5-a]pyridine-3-carboxylate], which IC50 (recombinant WT HIV-1 RT; [3]) is on record?
Answer: > 1000 µM

Question: What about the Kd (His-tagged HIV-1 RT WT; [5]) of the same compound?
Answer: > 200 µM

Question: How did the IC50 (recombinant WT HIV-1 RT; [4]) turn out when `CCOC(=O)c1cnn2ccc(C)cc12` [compound 3, Ethyl 5-Methylpyrazolo[1,5-a]pyridine-3-carboxylate] was run?
Answer: > 1000 µM

Question: How did the IC50 (recombinant WT HIV-1 RT; [4]) turn out when `CCOC(=O)c1cnn2cccc(C#CCCO)c12` [compound 25, Ethyl 4-(4-Hydroxybut-1-yn-1-yl)pyrazolo[1,5-a]pyridine-3-carboxylate] was run?
Answer: > 1000 µM
